Data on six compounds can be found in patent publication US8518911B2, “Pyrazolo[1,5-a]pyridines as MARK inhibitors” (Merck Sharp & Dohme Corp., priority 2008, dated 2013).

T1 sequence (P27448 whole entry, species assumed): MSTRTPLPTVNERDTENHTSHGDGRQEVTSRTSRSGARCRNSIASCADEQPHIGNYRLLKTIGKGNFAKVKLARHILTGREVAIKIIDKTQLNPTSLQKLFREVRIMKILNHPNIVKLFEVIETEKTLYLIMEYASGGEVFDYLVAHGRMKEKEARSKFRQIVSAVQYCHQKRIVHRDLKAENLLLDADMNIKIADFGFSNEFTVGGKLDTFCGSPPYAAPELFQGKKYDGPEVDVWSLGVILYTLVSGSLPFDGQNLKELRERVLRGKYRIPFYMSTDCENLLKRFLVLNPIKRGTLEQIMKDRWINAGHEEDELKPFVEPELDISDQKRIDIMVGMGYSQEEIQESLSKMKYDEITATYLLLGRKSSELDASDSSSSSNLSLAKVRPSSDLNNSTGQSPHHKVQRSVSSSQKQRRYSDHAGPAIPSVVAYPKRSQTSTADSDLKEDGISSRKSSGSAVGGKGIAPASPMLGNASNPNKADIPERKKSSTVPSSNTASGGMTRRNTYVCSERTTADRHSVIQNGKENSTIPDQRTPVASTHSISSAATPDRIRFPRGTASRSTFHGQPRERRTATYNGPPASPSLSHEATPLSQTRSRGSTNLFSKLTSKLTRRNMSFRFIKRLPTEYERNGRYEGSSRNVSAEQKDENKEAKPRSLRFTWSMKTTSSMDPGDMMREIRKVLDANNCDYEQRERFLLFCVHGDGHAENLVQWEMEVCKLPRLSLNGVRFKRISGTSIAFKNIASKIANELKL

The assay addresses T1, recombinant MARK3 enzyme (Homo sapiens, UniProt P27448).
T1 construct: purchased University of Dundee
In words: MARK 3 Assay (HTRF, Cdc25C biotinylated peptide substrate). As to conditions: MARK3, 10 μM ATP, 1 μM peptide substrate, 2 hours at 25° C. Format: biochemical. How it is done:
MARK3 activity was assayed in vitro using a Cdc25C biotinylated peptide substrate (Cell Signalling Technologies). The phosphopeptide product was quantitated using a Homogenous Time-Resolved Fluorescence (HTRF) assay system (Park et al., 1999, Anal. Biochem. 269:94-104). The reaction mixture contained 50 mM HEPES/Tris-HCl, pH 7.4; […], 5 mM MgCl2, 0.2 mM NaVO4, 5 mM β-glycerol phosphate, 0.1% Tween-20, 2 mM dithiothreitol, 0.1% BSA, 10 μM ATP, 1 μM peptide substrate, and 10 nM recombinant MARK3 enzyme (University of Dundee) in a final volume of 12 μL. The buffer additionally contained protease inhibitor cocktail (Roche EDTA-free, 1 tab per 50 ml). The kinase reaction was incubated for 2 hours at 25° C., and then terminated with 3 μl Stop/Detection Buffer (50 mM HEPES, pH 7.0, 16.6 mM EDTA, 0.5M KF, 0.1% Tween-20, 0.1% BSA, 2 μg/ml SLX^ent 665 (CISBIO), and 2 μg/mL Eu^3+ cryptate label antibody (CISBIO)). The reaction was allowed to equilibrate overnight at 0° C., and relative fluorescent units were read on an HTRF enabled plate reader (e.g. TECAN GENios Pro).
Inhibitor compounds were assayed in the reaction described above to determine compound IC50s. Aliquots of compound dissolved in DMSO were added to the reaction wells in a third-log dilution series covering a range of 1 nM to 10 μM. Relative phospho substrate formation, read as HTRF fluorescence units, was measured over the range of compound concentrations and a titration curve generated.
In general, IC50 refers to the point on the concentration scale where inhibition reaches its midpoint. For `N[C@@H]1CCCC(F)(F)[C@@H]1NC(=O)c1nc(-c2cnn3cc(-c4ccc(F)cc4)ccc23)c(Cl)s1` [Example 1], the half-inhibitory concentration (IC50) was 21 nM.

Consider `N[C@H]1CCCC(F)(F)[C@@H]1NC(=O)c1nc(-c2cnn3ccccc23)c(Cl)s1` [Example 7, N-[(1R,6S)-6-Amino-2,2-difluorocyclohexyl]-5-chloro-4-pyrazolo[1,5-a]pyridin-3-yl-1,3-thiazole-2-carboxamide], for which the IC50 is 4 nM.

For `C=C(C)c1ccc2c(-c3csc(C(=O)N[C@@H]4[C@@H](N)CCCC4(F)F)n3)cnn2c1` [Example 157, N-[(1R,6S)-6-Amino-2,2-difluorocyclohexyl]-4-(6-isopropenylpyrazolo[1,5-a]pyridin-3-yl)-1,3-thiazole-2-carboxamide], the IC50 was 0.5 nM.

As for `CCc1sc(C(=O)N[C@@H]2[C@@H](N)CCCC2(F)F)cc1-c1cnn2cc(F)ccc12` [Example 170, N-[(1R,6S)-6-Amino-2,2-difluorocyclohexyl]-5-ethyl-4-(6-fluoropyrazolo[1,5-a]pyridin-3-yl)thiophene-2-carboxamide], the IC50 was determined as 29 nM.

As for `Cc1sc(C(=O)NC(CN)c2ccccc2)nc1-c1cnn2cc(-c3cnn(C)c3)ccc12` (stereo not drawn) [Example 182, N-(2-Amino-1-phenylethyl)-5-methyl-4-[6-(1-methyl-1H-pyrazol-4-yl)pyrazolo[1,5-a]pyridin-3-yl]-1,3-thiazole-2-carboxamide], the IC50 is 13 nM.

In the case of `N[C@@H]1CCCC(F)(F)[C@@H]1NC(=O)c1cc(-c2cnn3ccccc23)c(Cl)s1` [Example 206, N-[(1R,6R)-6-amino-2,2-difluorocyclohexyl]-5-chloro-4-pyrazolo[1,5-a]pyridin-3-yl-2-thiophenecarboxamide], the IC50 was 19 nM.
